Key:
Type in all cases: functional
Parvimonas micra = test: Antimicrobial activity in Micromonas micros by CLSI agar dilution method in presence of Tazobactam
Prevotella nigrescens = test: Antimicrobial activity in Prevotella nigrescens by CLSI agar dilution method in presence of Tazobactam
Clostridium tertium = test: Antimicrobial activity in Clostridium tertium by CLSI agar dilution method in presence of Tazobactam
Finegoldia magna = test: Antimicrobial activity in Finegoldia magna by CLSI agar dilution method in presence of Tazobactam
[1] = test system: Porphyromonas asaccharolytica; test: Antimicrobial activity in Porphyromonas asaccharolytica by CLSI agar dilution method in presence of Tazobactam
Clostridium perfringens = test: Antimicrobial activity in Clostridium perfringens by CLSI agar dilution method in presence of Tazobactam
Actinomyces = test: Antimicrobial activity in Actinomyces by CLSI agar dilution method in presence of Tazobactam
[2] = test system: Parabacteroides distasonis; test: Antimicrobial activity in Bacteroides distasonis by CLSI agar dilution method in presence of Tazobactam
Prevotella sp. = test: Antimicrobial activity in Prevotella sp.by CLSI agar dilution method in presence of Tazobactam
Prevotella veroralis = test: Antimicrobial activity in Prevotella veroralis by CLSI agar dilution method in presence of Tazobactam
Prevotella buccae = test: Antimicrobial activity in Prevotella buccae by CLSI agar dilution method in presence of Tazobactam; conditions: Segatella buccae
Bacteroides uniformis = test: Antimicrobial activity in Bacteroides uniformis by CLSI agar dilution method in presence of Tazobactam
Prevotella intermedia = test: Antimicrobial activity in Prevotella intermedia by CLSI agar dilution method in presence of Tazobactam
Phocaeicola vulgatus = test: Antimicrobial activity in Bacteroides vulgatus by CLSI agar dilution method in presence of Tazobactam
Porphyromonas gingivalis = test: Antimicrobial activity in Porphyromonas gingivalis by CLSI agar dilution method in presence of Tazobactam
Clostridium butyricum = test: Antimicrobial activity in Clostridium butyricum by CLSI agar dilution method in presence of Tazobactam
Cutibacterium acnes = test: Antimicrobial activity in Propionibacterium acnes by CLSI agar dilution method in presence of Tazobactam
[3] = test system: Prevotella melaninogenica; test: Antimicrobial activity in Prevotella melaninogenica by CLSI agar dilution method in presence of Tazobactam
Prevotella bivia = test: Antimicrobial activity in Prevotella bivia by CLSI agar dilution method in presence of Tazobactam
Anaerococcus tetradius = test: Antimicrobial activity in Anaerococcus tetradius by CLSI agar dilution method in presence of Tazobactam
Anaerococcus prevotii = test: Antimicrobial activity in Anaerococcus prevotii by CLSI agar dilution method in presence of Tazobactam
Tissierella praeacuta = test: Antimicrobial activity in Clostridium hastiforme by CLSI agar dilution method in presence of Tazobactam
Prevotella disiens = test: Antimicrobial activity in Prevotella disiens by CLSI agar dilution method in presence of Tazobactam
[4] = test system: Fusobacterium necrophorum; test: Antimicrobial activity in Fusobacterium necrophorum by CLSI agar dilution method in presence of Tazobactam
Lactobacillus = test: Antimicrobial activity in Lactobacillus by CLSI agar dilution method in presence of Tazobactam
[Clostridium] innocuum = Antimicrobial activity in Clostridium innocuum by CLSI agar dilution method in presence of Tazobactam
Prevotella salivae = test: Antimicrobial activity in Prevotella salivae by CLSI agar dilution method in presence of Tazobactam; conditions: Segatella salivae
Clostridioides difficile = test: Antimicrobial activity in Clostridium difficile by CLSI agar dilution method in presence of Tazobactam
Eggerthella lenta = test: Antimicrobial activity in Eggerthella lenta by CLSI agar dilution method in presence of Tazobactam
Fusobacterium varium = test: Antimicrobial activity in Fusobacterium varium by CLSI agar dilution method in presence of Tazobactam
Prevotella baroniae = test: Antimicrobial activity in Prevotella baroniae by CLSI agar dilution method in presence of Tazobactam; conditions: Segatella baroniae
Bacteroides ovatus = test: Antimicrobial activity in Bacteroides ovatus by CLSI agar dilution method in presence of Tazobactam
Fusobacterium nucleatum = test: Antimicrobial activity in Fusobacterium nucleatum by CLSI agar dilution method in presence of Tazobactam
Clostridium sp. = test: Antimicrobial activity in Clostridium sp. by CLSI agar dilution method in presence of Tazobactam
Fusobacterium mortiferum = test: Antimicrobial activity in Fusobacterium mortiferum by CLSI agar dilution method in presence of Tazobactam
Prevotella denticola = test: Antimicrobial activity in Prevotella denticola by CLSI agar dilution method in presence of Tazobactam
[5] = test system: Paeniclostridium sordellii; test: Antimicrobial activity in Clostridium sordellii by CLSI agar dilution method in presence of Tazobactam; conditions: Paraclostridium sordellii
[6] = test system: Paraclostridium bifermentans; test: Antimicrobial activity in Clostridium bifermentans by CLSI agar dilution method in presence of Tazobactam
Bifidobacterium = test: Antimicrobial activity in Bifidobacterium by CLSI agar dilution method in presence of Tazobactam
[7] = test system: Enterocloster clostridioformis; test: Antimicrobial activity in Clostridium clostridioforme by CLSI agar dilution method in presence of Tazobactam
Clostridium cadaveris = test: Antimicrobial activity in Clostridium cadaveris by CLSI agar dilution method in presence of Tazobactam
[8] = test system: Bacteroides thetaiotaomicron; test: Antimicrobial activity in Bacteroides thetaiotaomicron by CLSI agar dilution method in presence of Tazobactam
Prevotella bergensis = test: Antimicrobial activity in Prevotella bergensis by CLSI agar dilution method in presence of Tazobactam; conditions: Hallella bergensis
Thomasclavelia ramosa = test: Antimicrobial activity in Clostridium ramosum by CLSI agar dilution method in presence of Tazobactam
Bacteroides stercoris = test: Antimicrobial activity in Bacteroides stercoris by CLSI agar dilution method in presence of Tazobactam
Hoylesella loescheii = test: Antimicrobial activity in Prevotella loescheii by CLSI agar dilution method in presence of Tazobactam
Bacteroides fragilis = test: Antimicrobial activity in Bacteroides fragilis by CLSI agar dilution method in presence of Tazobactam
[9] = test system: Peptoniphilus asaccharolyticus; test: Antimicrobial activity in Peptoniphilus asaccharolyticus by CLSI agar dilution method in presence of Tazobactam
Prevotella corporis = test: Antimicrobial activity in Prevotella corporis by CLSI agar dilution method in presence of Tazobactam
Hoylesella oralis = test: Antimicrobial activity in Prevotella oralis group by CLSI agar dilution method in presence of Tazobactam
[10] = test system: Peptostreptococcus anaerobius; test: Antimicrobial activity in Peptostreptococcus anaerobius by CLSI agar dilution method in presence of Tazobactam

## CCN1CCN(C(=O)N[C@@H](C(=O)N[C@@H]2C(=O)N3[C@@H]2SC(C)(C)[C@@H]3C(=O)O)c2ccccc2)C(=O)C1=O [PIPERACILLIN]
Parvimonas micra
  MIC: ≤ 0.125 µg/mL
  MIC50: ≤ 0.125 µg/mL
  MIC90: ≤ 0.125 µg/mL
Prevotella nigrescens
  MIC: ≤ 0.125 µg/mL
  MIC50: ≤ 0.125 µg/mL
  MIC90: ≤ 0.125 µg/mL
Clostridium tertium
  MIC: 4 µg/mL
  MIC50: 8 µg/mL
Finegoldia magna
  MIC: ≤ 0.125 µg/mL
  MIC50: ≤ 0.125 µg/mL
  MIC90: 0.25 µg/mL
[1]
  MIC: ≤ 0.125 µg/mL
Clostridium perfringens
  MIC: ≤ 0.125 µg/mL
  MIC50: ≤ 0.125 µg/mL
  MIC90: 0.5 µg/mL
Actinomyces
  MIC: 0.5 µg/mL
  MIC50: 1 µg/mL
[2]
  MIC50: 4 µg/mL
  MIC90: 4 µg/mL
Prevotella sp.
  MIC: ≤ 0.125 µg/mL
Prevotella veroralis
  MIC: ≤ 0.125 µg/mL
Prevotella buccae
  MIC: ≤ 0.125 µg/mL
  MIC50: ≤ 0.125 µg/mL
  MIC90: ≤ 0.125 µg/mL
Bacteroides uniformis
  MIC: 0.5 µg/mL
  MIC50: 1 µg/mL
Prevotella intermedia
  MIC: ≤ 0.125 µg/mL
  MIC50: ≤ 0.125 µg/mL
  MIC90: ≤ 0.125 µg/mL
Phocaeicola vulgatus
  MIC50: 2 µg/mL
  MIC90: 16 µg/mL
Porphyromonas gingivalis
  MIC: ≤ 0.125 µg/mL
Clostridium butyricum
  MIC: 0.5 µg/mL
Cutibacterium acnes
  MIC50: 0.25 µg/mL
  MIC90: 1 µg/mL
[3]
  MIC: ≤ 0.125 µg/mL
  MIC50: ≤ 0.125 µg/mL
  MIC90: ≤ 0.125 µg/mL
Prevotella bivia
  MIC: ≤ 0.125 µg/mL
  MIC50: ≤ 0.125 µg/mL
  MIC90: ≤ 0.125 µg/mL
Anaerococcus tetradius
  MIC: ≤ 0.125 µg/mL
  MIC50: ≤ 0.125 µg/mL
  MIC90: 0.25 µg/mL
Anaerococcus prevotii
  MIC: ≤ 0.125 µg/mL
Tissierella praeacuta
  MIC: 2 µg/mL
Prevotella disiens
  MIC: ≤ 0.125 µg/mL
  MIC50: ≤ 0.125 µg/mL
[4]
  MIC: ≤ 0.125 µg/mL
  MIC50: ≤ 0.125 µg/mL
Lactobacillus
  MIC50: 2 µg/mL
  MIC90: 2 µg/mL
[Clostridium] innocuum
  MIC: ≤ 0.125 µg/mL
Prevotella salivae
  MIC: ≤ 0.125 µg/mL
Clostridioides difficile
  MIC: 8 µg/mL
  MIC50: 8 µg/mL
  MIC90: 16 µg/mL
Eggerthella lenta
  MIC50: 16 µg/mL
  MIC90: 16 µg/mL
Fusobacterium varium
  MIC50: 4 µg/mL
  MIC90: 8 µg/mL
Prevotella baroniae
  MIC: ≤ 0.125 µg/mL
Bacteroides ovatus
  MIC50: 2 µg/mL
  MIC90: 4 µg/mL
Fusobacterium nucleatum
  MIC: ≤ 0.125 µg/mL
  MIC50: ≤ 0.125 µg/mL
  MIC90: ≤ 0.125 µg/mL
Clostridium sp.
  MIC50: 1 µg/mL
  MIC90: 2 µg/mL
Fusobacterium mortiferum
  MIC: 0.25 µg/mL
  MIC50: 0.25 µg/mL
  MIC90: 1 µg/mL
Prevotella denticola
  MIC: ≤ 0.125 µg/mL
  MIC50: ≤ 0.125 µg/mL
  MIC90: ≤ 0.125 µg/mL
[5]
  MIC: ≤ 0.125 µg/mL
[6]
  MIC: 0.5 µg/mL
Bifidobacterium
  MIC: ≤ 0.125 µg/mL
  MIC50: ≤ 0.125 µg/mL
  MIC90: 0.25 µg/mL
[7]
  MIC: 8 µg/mL
Clostridium cadaveris
  MIC: ≤ 0.125 µg/mL
[8]
  MIC50: 8 µg/mL
  MIC90: 16 µg/mL
Prevotella bergensis
  MIC: ≤ 0.125 µg/mL
Thomasclavelia ramosa
  MIC: ≤ 0.125 µg/mL
Bacteroides stercoris
  MIC: ≤ 0.125 µg/mL
  MIC50: 1 µg/mL
Hoylesella loescheii
  MIC: ≤ 0.125 µg/mL
Bacteroides fragilis
  MIC50: 0.5 µg/mL
  MIC90: 2 µg/mL
[9]
  MIC: ≤ 0.125 µg/mL
  MIC50: ≤ 0.125 µg/mL
Prevotella corporis
  MIC: ≤ 0.125 µg/mL
  MIC50: ≤ 0.125 µg/mL
Hoylesella oralis
  MIC: ≤ 0.125 µg/mL
[10]
  MIC: 0.25 µg/mL
  MIC50: 0.25 µg/mL
  MIC90: 16 µg/mL
